{"source": "patent US6599940B2", "about": "“Synthesis of 2-hydroxymethylglutamic acid and congeners thereof” (Georgetown University, priority 2000, dated 2003)", "details_in_all_cases": "result in words, no method or number given", "key": {"[1]": {"target": "mGluR3 (Homo sapiens, UniProt Q14832)", "sequence (Q14832 23-879)": "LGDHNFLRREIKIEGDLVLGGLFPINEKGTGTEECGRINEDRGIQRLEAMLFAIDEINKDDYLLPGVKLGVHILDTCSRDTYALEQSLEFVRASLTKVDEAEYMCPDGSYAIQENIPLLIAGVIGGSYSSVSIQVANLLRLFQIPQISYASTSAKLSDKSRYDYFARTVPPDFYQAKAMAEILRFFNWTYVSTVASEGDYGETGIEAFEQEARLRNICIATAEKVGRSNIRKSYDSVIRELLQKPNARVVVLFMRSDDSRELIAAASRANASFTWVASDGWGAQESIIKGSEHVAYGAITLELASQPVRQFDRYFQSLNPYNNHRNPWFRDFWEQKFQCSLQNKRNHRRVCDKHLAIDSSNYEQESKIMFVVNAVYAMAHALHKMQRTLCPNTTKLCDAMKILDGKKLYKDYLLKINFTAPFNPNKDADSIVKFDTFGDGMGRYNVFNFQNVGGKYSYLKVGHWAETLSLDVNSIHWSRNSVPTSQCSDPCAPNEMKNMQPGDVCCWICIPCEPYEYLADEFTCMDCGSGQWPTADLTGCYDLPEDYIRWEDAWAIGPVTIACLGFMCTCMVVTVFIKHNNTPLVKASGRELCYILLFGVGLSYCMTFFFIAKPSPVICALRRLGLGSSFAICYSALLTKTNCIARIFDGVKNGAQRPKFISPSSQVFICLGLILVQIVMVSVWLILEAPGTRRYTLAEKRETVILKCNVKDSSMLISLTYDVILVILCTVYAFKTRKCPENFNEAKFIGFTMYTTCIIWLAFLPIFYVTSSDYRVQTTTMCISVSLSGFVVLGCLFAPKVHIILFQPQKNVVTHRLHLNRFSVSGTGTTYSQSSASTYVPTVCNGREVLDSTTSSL", "assay": "Agonist activity at the Group 2 receptor mGluR3"}, "[2]": {"target": "mGluR2 (Homo sapiens, UniProt Q14416)", "sequence (Q14416 19-872)": "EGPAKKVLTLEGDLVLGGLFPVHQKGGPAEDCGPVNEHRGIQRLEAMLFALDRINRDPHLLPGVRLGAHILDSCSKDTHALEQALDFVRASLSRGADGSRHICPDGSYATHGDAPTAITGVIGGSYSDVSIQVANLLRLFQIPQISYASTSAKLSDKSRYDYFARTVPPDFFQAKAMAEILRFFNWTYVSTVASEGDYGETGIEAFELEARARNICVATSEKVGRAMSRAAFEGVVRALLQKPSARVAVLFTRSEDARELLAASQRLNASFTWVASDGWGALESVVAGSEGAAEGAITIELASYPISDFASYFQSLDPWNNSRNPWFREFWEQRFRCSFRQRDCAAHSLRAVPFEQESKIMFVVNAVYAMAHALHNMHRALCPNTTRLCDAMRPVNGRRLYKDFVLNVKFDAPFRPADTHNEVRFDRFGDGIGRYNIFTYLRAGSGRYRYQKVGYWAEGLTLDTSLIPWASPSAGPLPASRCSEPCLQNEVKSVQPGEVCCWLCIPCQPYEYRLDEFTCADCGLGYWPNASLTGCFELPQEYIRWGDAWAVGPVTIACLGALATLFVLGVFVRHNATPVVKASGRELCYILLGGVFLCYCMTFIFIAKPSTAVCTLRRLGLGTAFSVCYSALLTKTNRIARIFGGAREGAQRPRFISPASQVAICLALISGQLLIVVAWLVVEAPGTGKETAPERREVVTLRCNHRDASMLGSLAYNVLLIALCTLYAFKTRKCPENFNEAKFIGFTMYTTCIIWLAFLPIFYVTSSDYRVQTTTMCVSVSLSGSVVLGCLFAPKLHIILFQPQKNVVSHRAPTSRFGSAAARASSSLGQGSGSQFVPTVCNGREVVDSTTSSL", "assay": "Antagonist activity at mGluR2"}, "[3]": {"test_system": "Group 1 mGluRs", "assay": "Effect on Group 1 mGluRs"}, "[4]": {"test_system": "Group 3 mGluRs", "assay": "Effect on Group 3 mGluRs"}}}
{"molecule": "N[C@@](CO)(CCC(=O)O)C(=O)O", "note": "[Compound 1, (R)-2(Hydroxymethyl)glutamic acid]", "values": [{"measurement": "activity at the Group 2 receptor mGluR3", "setting": "[1]", "value": "relatively potent agonist"}, {"measurement": "activity at mGluR2", "setting": "[2]", "value": "weak antagonist"}, {"measurement": "effect on the Group 1 mGluRs", "setting": "[3]", "value": "little or no effect"}, {"measurement": "effect on the Group 3 mGluRs", "setting": "[4]", "value": "little or no effect"}]}
